According to PubChem BioAssay AID248 (DTP/NCI, 2004):
Where “and” joins values, the source holds several entries; their conditions need not be identical. Equal entries are not always repeated. Toxic doses and inconclusive results are not listed. Rule as the data show it: active = T/C of 150% or more; inactive = T/C below 125%.

System: L1210 leukemia ip in BDF1 mice, survival T/C
Experiment: NCI In Vivo Anticancer Drug Screen. Data for tumor model L1210 Leukemia (intraperitoneal) in B6D2F1 (BDF1) mice
Settings: endpoint: mean survival time, higher = longer survival
Method in brief: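 Transplantable tumor model; survival measured in treated vs vehicle control mice. Value = treated/control.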

[1] = dose: 100.0 mg/kg/injection, schedule: Q01DX001 (ip), vehicle: saline
[2] = dose: 200.0 mg/kg/injection, schedule: Q01DX001 (ip), vehicle: saline
[3] = dose: 100.0 mg/kg/injection, schedule: Q04DX003 (ip), vehicle: saline
[4] = dose: 100.0 mg/kg/injection, schedule: Q04DX002 (ip), vehicle: Klucel (hydroxypropylcellulose) (HPC)
[5] = dose: 200.0 mg/kg/injection, schedule: Q04DX002 (ip), vehicle: Klucel (hydroxypropylcellulose) (HPC)
[6] = dose: 400.0 mg/kg/injection, schedule: Q04DX002 (ip), vehicle: Klucel (hydroxypropylcellulose) (HPC)
[7] = dose: 100.0 mg/kg/injection, schedule: Q01DX009 (ip), vehicle: saline with Tween-80
[8] = dose: 200.0 mg/kg/injection, schedule: Q01DX009 (ip), vehicle: saline with Tween-80
[9] = dose: 400.0 mg/kg/injection, schedule: Q01DX009 (ip), vehicle: saline with Tween-80
[10] = dose: 100.0 mg/kg/injection, schedule: Q01DX009 (ip), vehicle: saline
[11] = dose: 200.0 mg/kg/injection, schedule: Q01DX009 (ip), vehicle: saline
[12] = dose: 200.0 mg/kg/injection, schedule: Q04DX003 (ip), vehicle: saline
[13] = dose: 400.0 mg/kg/injection, schedule: Q04DX003 (ip), vehicle: saline
[14] = dose: 100.0 mg/kg/injection, schedule: Q04DX002 (ip), vehicle: saline with Tween-80
[15] = dose: 200.0 mg/kg/injection, schedule: Q04DX002 (ip), vehicle: saline with Tween-80
[16] = dose: 400.0 mg/kg/injection, schedule: Q04DX002 (ip), vehicle: saline with Tween-80
[17] = dose: 100.0 mg/kg/injection, schedule: Q01DX009 (ip), vehicle: Klucel (hydroxypropylcellulose) (HPC)
[18] = dose: 200.0 mg/kg/injection, schedule: Q01DX009 (ip), vehicle: Klucel (hydroxypropylcellulose) (HPC)
[19] = dose: 400.0 mg/kg/injection, schedule: Q01DX001 (ip), vehicle: saline
[20] = dose: 100.0 mg/kg/injection, schedule: Q04DX003 (ip), vehicle: Klucel (hydroxypropylcellulose) (HPC)
[21] = dose: 200.0 mg/kg/injection, schedule: Q04DX003 (ip), vehicle: Klucel (hydroxypropylcellulose) (HPC)
[22] = dose: 400.0 mg/kg/injection, schedule: Q01DX009 (ip), vehicle: Klucel (hydroxypropylcellulose) (HPC)
[23] = dose: 400.0 mg/kg/injection, schedule: Q04DX003 (ip), vehicle: Klucel (hydroxypropylcellulose) (HPC)
[24] = dose: 100.0 mg/kg/injection, schedule: Q04DX003 (ip), vehicle: saline with Tween-80
[25] = dose: 200.0 mg/kg/injection, schedule: Q04DX003 (ip), vehicle: saline with Tween-80
[26] = dose: 400.0 mg/kg/injection, schedule: Q04DX003 (ip), vehicle: saline with Tween-80

Measured: T/C

Nc1cncc2ncc(-c3ccc(Cl)cc3)nc12
inactive: dose: 50.0 mg/kg/injection, schedule: Q01DX001 (ip), vehicle: other 105 % of control | dose: 100.0 mg/kg/injection, schedule: Q01DX001 (ip), vehicle: other 100 % of control | dose: 200.0 mg/kg/injection, schedule: Q01DX001 (ip), vehicle: other 94 % of control | dose: 400.0 mg/kg/injection, schedule: Q01DX001 (ip), vehicle: other 96 % of control

COc1ccc(CC[n+]2cccc(C#N)c2)cc1OC
inactive: dose: 75.0 mg/kg/injection, schedule: Q01DX001 (ip), vehicle: carboxymethylcellulose (CMC) 105 % of control | dose: 150.0 mg/kg/injection, schedule: Q01DX001 (ip), vehicle: carboxymethylcellulose (CMC) 100 % of control

CNc1nc2nc[nH]c2c(=S)n1C
inactive: [1] 103 % of control | [2] 100 % of control

CCCCC[N+](C)(C)CCOC(=O)C1C2CC3OC(=O)C1C3C2 (stereo unspecified)
inactive: [3] 95 % of control

COc1cc(Cl)ccc1NC(=O)Oc1ccc2ccccc2c1
inactive: [4] 108 % of control | [5] 90 % of control | [6] 104 % of control

CCCCCCCCCCCCCCCC(=O)N(CCC#N)CCCCN(CCC#N)C(=O)CCCCCCCCCCCCCCC
inactive: dose: 50.0 mg/kg/injection, schedule: Q01DX009 (ip), vehicle: saline with Tween-80 97 % of control and 106 % of control | [7] 93 % of control and 90 % of control | [8] 95 % of control and 102 % of control | dose: 300.0 mg/kg/injection, schedule: Q01DX009 (ip), vehicle: saline with Tween-80 92 % of control | [9] 98 % of control and 92 % of control | dose: 500.0 mg/kg/injection, schedule: Q01DX009 (ip), vehicle: saline with Tween-80 92 % of control

CCOC(=O)C[n+]1ccccc1Br
inactive: dose: 50.0 mg/kg/injection, schedule: Q01DX015 (ip), vehicle: water 90 % of control | dose: 100.0 mg/kg/injection, schedule: Q01DX015 (ip), vehicle: water 100 % of control

CCCCOc1ccc(CCOC(C)=O)cc1
inactive: [4] 112 % of control | [5] 108 % of control | [6] 104 % of control

CCCN(C(=O)N([Si](C)(C)C)S(=O)(=O)c1ccc(Cl)cc1)[Si](C)(C)C
inactive: dose: 50.0 mg/kg/injection, schedule: Q01DX009 (ip), vehicle: saline 103 % of control | [10] 96 % of control

Cc1cc(NC(=O)NCc2ccc(N)cc2)ccc1S(=O)(=O)F
inactive: [10] 95 % of control | [3] 100 % of control | [11] 114 % of control | [12] 96 % of control | dose: 400.0 mg/kg/injection, schedule: Q01DX009 (ip), vehicle: saline 93 % of control | [13] 100 % of control

COc1cc(OC)c(-c2nc3ccc(C)cc3c(=O)o2)cc1OC
inactive: [14] 103 % of control | [15] 100 % of control | [16] 103 % of control

CN(C(=O)Oc1ccccc1)c1ccc(S(=O)(=O)F)cc1
inactive: dose: 100.0 mg/kg/injection, schedule: Q01DX001 (ip), vehicle: saline with Tween-80 104 % of control | dose: 200.0 mg/kg/injection, schedule: Q01DX001 (ip), vehicle: saline with Tween-80 96 % of control | dose: 400.0 mg/kg/injection, schedule: Q01DX001 (ip), vehicle: saline with Tween-80 98 % of control

NC(CSC(c1ccccc1)(c1ccccc1)c1ccccc1)C(=O)OC(c1ccccc1)c1ccccc1 (stereo unspecified)
inactive: dose: 264.0 mg/kg/injection, schedule: Q01DX001 (ip), vehicle: carboxymethylcellulose (CMC) 113 % of control

Cc1nccnc1Sc1ccc(Br)cc1
inactive: dose: 50.0 mg/kg/injection, schedule: Q01DX009 (ip), vehicle: Klucel (hydroxypropylcellulose) (HPC) 106 % of control | [17] 113 % of control | [18] 106 % of control

CCCCOCN(COCCCC)C(C)(C)C
inactive: [1] 93 % of control | [2] 98 % of control | [19] 117 % of control

CC(C)CCC[C@@H](C)[C@H]1CC[C@H]2[C@@H]3CC=C4C[C@@H](O)CC[C@]4(C)[C@H]3CC[C@]12C
inactive: [1] 92 % of control | [17] 94 % of control | [20] 97 % of control | [2] 95 % of control | [18] 91 % of control | [21] 89 % of control | [19] 92 % of control | [22] 92 % of control | [23] 94 % of control

COc1ccc2c(c1)CC[C@@H]1[C@@H]2CC[C@]2(C)[C@@H](O)C(=O)C[C@@H]12
inactive: [7] 90 % of control | [3] 94 % of control | [8] 92 % of control | [12] 88 % of control | [9] 90 % of control | [13] 91 % of control

C=CCNC(=O)C(Br)(CC)CC
inactive: [10] 92 % of control | [3] 96 % of control | [11] 92 % of control | [12] 96 % of control

COc1ccc2c(c1)CCCCC2=O
inactive: dose: 50.0 mg/kg/injection, schedule: Q01DX001 (ip), vehicle: carboxymethylcellulose (CMC) 105 % of control | dose: 100.0 mg/kg/injection, schedule: Q01DX001 (ip), vehicle: carboxymethylcellulose (CMC) 102 % of control | dose: 200.0 mg/kg/injection, schedule: Q01DX001 (ip), vehicle: carboxymethylcellulose (CMC) 100 % of control | dose: 400.0 mg/kg/injection, schedule: Q01DX001 (ip), vehicle: carboxymethylcellulose (CMC) 102 % of control

CCCCNc1ccc(S(=O)(=O)c2ccc(NCCCC)c([N+](=O)[O-])c2)cc1[N+](=O)[O-]
inactive: dose: 1.56 mg/kg/injection, schedule: Q01DX009 (ip), vehicle: DMSO 89 % of control | dose: 3.12 mg/kg/injection, schedule: Q01DX009 (ip), vehicle: DMSO 101 % of control | dose: 6.25 mg/kg/injection, schedule: Q01DX009 (ip), vehicle: DMSO 101 % of control | dose: 25.0 mg/kg/injection, schedule: Q01DX009 (ip), vehicle: DMSO 102 % of control | dose: 100.0 mg/kg/injection, schedule: Q01DX005 (ip), vehicle: DMSO 105 % of control | dose: 100.0 mg/kg/injection, schedule: Q01DX009 (ip), vehicle: DMSO 100 % of control | dose: 100.0 mg/kg/injection, schedule: Q04DX002 (ip), vehicle: DMSO 103 % of control | dose: 200.0 mg/kg/injection, schedule: Q01DX005 (ip), vehicle: DMSO 90 % of control | dose: 200.0 mg/kg/injection, schedule: Q04DX002 (ip), vehicle: DMSO 111 % of control | dose: 400.0 mg/kg/injection, schedule: Q01DX005 (ip), vehicle: DMSO 93 % of control | dose: 400.0 mg/kg/injection, schedule: Q04DX002 (ip), vehicle: DMSO 103 % of control

CCCCCCCCC(=O)N(C)OC
inactive: [24] 93 % of control | [25] 93 % of control

O=C(O)CNCCN1CC(=O)NC1=S
inactive: [14] 107 % of control | [15] 92 % of control | [16] 90 % of control

BrCc1c(CBr)c(CBr)c(CBr)c(CBr)c1CBr
inactive: [17] 98 % of control | [20] 94 % of control | [18] 97 % of control | [21] 96 % of control | [22] 97 % of control | [23] 96 % of control

CCN(CC)CCN1C(=O)C2CCCCC2C1=O (stereo unspecified)
inactive: [24] 101 % of control | [25] 101 % of control | [26] 97 % of control

CCNC(=S)NC1CCCCCCCCCCC1
inactive: [14] 94 % of control | [15] 87 % of control

CN(CCNC(=O)c1ccc(Cl)cc1)c1ccccc1
inactive: [4] 96 % of control | [5] 96 % of control | [6] 86 % of control

[O-][n+]1c2ccccc2c(Oc2ccccc2)c2ccc3ccccc3c21
inactive: [24] 95 % of control | [26] 92 % of control

C/C(=N/NC(N)=S)c1cccc(C(F)(F)F)c1
inactive: dose: 37.5 mg/kg/injection, schedule: Q01DX009 (ip), vehicle: Klucel (hydroxypropylcellulose) (HPC) 97 % of control | dose: 75.0 mg/kg/injection, schedule: Q01DX009 (ip), vehicle: Klucel (hydroxypropylcellulose) (HPC) 95 % of control
